Experimental data reported in patent publication US20150250925A1, “[…] TISSUE, […] MODEL AND MANUFACTURING METHOD THEREFOR” (priority 2012, published 2015).

Key:
Format in all cases: cell-based, human
[1] = system: dermal tissue layer including dendritic cells; test: Immune response evaluation: IL-6 ELISA after LPS addition, dermal tissue layer including dendritic cells; settings: 24 hours, FIG. 3
Method: (§1) A dermal tissue layer including dendritic cells was prepared in the same manner as Example 1. The culture medium of the dermal tissue layer was changed to DMEM containing 10% FBS (the inside of the insert: 30 μl, the outside of the insert: 1 ml). Lipopolysaccharide (LPS, produced by Sigma-Aldrich Co. LLC.) was added to the inside of the insert and incubated for 24 hours. Then, all the culture medium in the outside of the insert was collected, and interleukin (IL)-6 was quantified by enzyme-linked immunosorbent assay (ELISA (R & D, D6056)). The concentration of the lipopolysaccharide was 0, 1, 10, 100, or 1000 ng/ml.
(§2) FIG. 3 is an example of a graph showing the relationship between the amount of LPS added and the amount of IL-6 produced from the dermal tissue layer.

[2] = system: artificial skin model including the epidermal layer; test: Immune response evaluation: IL-6 ELISA after LPS addition, artificial skin model of Example 4; settings: LPS 0-1000 ng/ml, 24 hours, FIG. 4
Method: as §1
First, a dermal tissue layer was prepared in the same manner as Example 1 and immersed in a 50 mM Tris-HCl solution (pH=7.4) containing collagen IV for 20 minutes, so that the dermal tissue layer was coated with collagen W Then, 1.8×10^5 KC were seeded and cultured in an adherent culture medium for 2 days. Subsequently, the KC were exposed to the air-liquid interface of a keratinized medium (multi-layered medium) for 7 days to induce differentiation, and thus an artificial skin model was prepared.
Using the artificial skin model, an immune response was evaluated in the same manner as Reference Example 1. […] FIG. 4 is an example of a graph showing the relationship between the amount of LPS added and the amount of IL-6 produced from the dermal tissue layer. […]

[3] = system: dermal tissue layer with NHDF, NHDMEC and MoDC; test: CLSM observation of dermal tissue layer of Reference Example 2 after LPS addition; settings: 1 μg/ml LPS, 30 hours after addition; FIG. 5
Method: NHDF coated cells were seeded and cultured so that the NHDF were arranged in 4 layers. Then, NHDMEC (human dermal microvascular endothelial cells) coated cells were seeded and cultured on top of the NHDF layers so that the NHDMEC were arranged in 1 layer. Moreover, NHDF coated cells were seeded and cultured on the NHDMEC layer so that the NHDF were arranged in 4 layers. These layered cells were cultured in 2.3 ml of DMEM containing 10% FBS for 3 days. Subsequently, 5×10^4 MoDC were seeded and cultured in 2.3 ml of DMEM containing 10% FBS for 1 day. Thus, a dermal tissue layer was formed. The dermal tissue layer was placed in the insert, to which 1 μg/ml LPS was added. The dermal tissue layer was observed by a confocal laser scanning microscope for 30 hours.
FIG. 5 is an example of a confocal laser scanning microscope (CLSM) image taken 30 hours after the addition of the LPS. […] Although the details of this are not clear, it is known that the dendritic cells are transferred to the lymphatic vessels when they are activated by an antigen in a living body. […] Moreover, it has been reported that, in a living body, a CC chemokine receptor 7 is expressed in the activated dendritic cells, while CC chemokine ligands 21, 19, which are ligands of the CC chemokine receptor 7, are produced in the lymphatic vessels. […]

[4] = system: dermal tissue layer (without dendritic cells); test: Immune response evaluation: IL-6 ELISA after LPS addition, dermal tissue layer without dendritic cells; settings: LPS 0, 1, 10, 100 or 1000 ng/ml, 24 hours; layer does not include dendritic cells; FIG. 3
Method: as §1
A dermal tissue layer (without dendritic cells) was prepared in the same manner as Example 1 except that “only the NHDF coated cells” were used instead of “a mixture of the NHDF coated cells and the MoDC coated cells”. Using the dermal tissue layer, an immune response was evaluated in the same manner as described above.
as §2

Substance: Lipopolysaccharide [LPS]
- amount of IL-6 produced from the dermal tissue layer ([1]; LPS 0, 1, 10, 100 or 1000 ng/ml, layer includes dendritic cells): increases with an increase in the amount of LPS added
- amount of IL-6 produced, layer with dendritic cells compared to layer without ([1]; LPS 0-1000 ng/ml): increases significantly
- amount of IL-6 produced [2]: does not change with the amount of LPS added
- overlap between dendritic cells and NHDMEC (CLSM image) [3]: state of overlap between the dendritic cells and the NHDMEC after the addition of the LPS is observed
- amount of IL-6 produced from the dermal tissue layer [4]: increases with an increase in the amount of LPS added
